Experimental data: patent US9072729B2, “Method for treating fibrosis and cancer with imidazolium and imidazolinium compounds” (Agency for Science, Technology and Research, priority 2008, dated 2015)

Tests used:
AGS = assay: Proliferation assay (MTS), gastric cancer cell line; assay type: cell-based; settings: Homo sapiens, 72 h, day 3
Method: Proliferation of Glioma cell lines: U87 MG and C6 under the treatment of DBZIM was examined using 3-(4,5-dimethylthiazol-2-yl)-5-(3-carboxymethoxyphenyl)-2-(4-sulfophenyl)-2H-tetrazolium (MTS) based proliferation assay kit (Promega, Wis., USA). MTS reagent was added to the control and treated cells (after 48 hr) directly and the absorbance signal was read at 490 nm using a Tecan Safire II plate reader.
The IC50 value (determined at day 3) was 50 μM for H1299 (lung cancer); 50 μM for MCF-7 (breast cancer), and 40 μM for AGS gastric cancer at day 3 (Table 3).

[1] = tested on: caspase 3, 8 and 9 in HLE cells; assay: Protein extract based caspase 3/8/9 colorimetric assays; assay type: cell-based, human; settings: 24 hr
Method: FIG. 23. (A). […] HLE cells were grown in a T75 flask and treated with DBZIM for 24 hr. The cells were then lysed and cytoplasmic protein was collected for assaying caspase 8, 9 and 3 using kits from Biovision. The data was normalized against the vehicle control. (B). […] HLE cells were treated by DBZIM of 1.5 mM for 24 hr. Cytosolic and mitochondria protein fractions were collected using a kit from Biovision. 15 μg of each protein was resolved in 4-12% gradient PAGE-SDS gel. The target proteins were recognized by antibody of cytochrome C, and visualized by the ECL method. The membrane was stripped and probed for the α-tubulin as the loading control for cytosolic fraction and Cox4 for mitochondria fraction.
Capspase 3/8/9 activities were determined using total protein extract as starting material (Biovision Inc., CA, USA). HLE cells were cultured in T75 flask and treated with DBZIM of various concentrations. Cytosolic protein extract was collected by pelleting and lysing the cells and centrifugation to remove the debris. Capspase 3, 8 and 9 activities were assayed using the same protein extract but adding the respective substrate. Absorbance readings were taken at 405 nm using Tecan Safire II plate reader. Results were expressed as relative caspase activity by normalizing to control cells without compound treatment.

[2] = tested on: liver fibrosis induced by thioacetamide (TAA); assay: Liver fibrosis in mice induced by thioacetamide (TAA); assay type: in vivo, mouse; settings: TAA model, 500 mg/L in drinking water, 12 weeks
Method: FIG. 15 Effect of DBZIM and DPIM on liver fibrosis in mice. DBZIM was tested on mice induced by (a) liver toxin thioacetamide (TAA) or by (b) bile duct ligation (BDL). DPIM was also tested on mice induced by TAA (data not shown)) or by (c) bile duct ligation (BDL).
For the liver toxin thioacetamide (TAA) model, TAA was given by i.p. injection at 200 mg/kg body weight, 3 times per week, for 12 weeks, to induce hepatic fibrosis in mice. For the bile duct ligation model (BDL), adult mice were anesthetized with Ketamine (150 mg/kg)/Xylazine (10 mg/kg) via i.p. injection. An abdominal incision at the midline is made to expose the common bile conduct, which was then ligated using 5-0 silk suture. In the control animal, the bile duct is exposed, but not ligated. DBZIM or DPIM was provided to the mice in drinking water at concentrations from 1 to 1000 mg/liter. The collagen content in the fibrotic liver was assessed by the Sirius Red staining of the liver tissue sections.

AIF = AIF translocation (Western blot and HCS); assay type: cell-based, human; settings: 24 hr
Method: FIG. 26. DBZIM induced cytoplasm-to-nucleus translocation of AIF. (A). DBZIM translocated AIF from cytoplasm to nucleus. HepG2 cells were treated by DBZIM for 24 hr. Cytoplasmic and nuclear proteins were fractionated using a kit from Pierce. 15 μg of proteins were resolved in 4-12% gradient PAGE-SDS gel. The target proteins were recognized by the antibody of AIF, and visualized by the ECL method. The membrane was stripped and re-probed for α-tubulin as the loading control for cytoplasmic fraction and Tata binding protein TBP for nuclear protein. (B). HLE cells were grown in 96-well plate and treated by DBZIM for 24 hr. The cells were then fixed and stained by antibody of AIF. The images were acquired and analyzed using ArrayScan VTI HCS reader (Thermal Scientific, PA, USA) and Target Activation BioApplication software. The arrows indicate the cytoplasmic and the nuclear location of the AIF staining in the control and the DBZIM, respectively. (C). Quantification of AIF staining in different subcellular compartments. […]
HLE cells cultured in 96-well plate were treated with DBZIM for 24 hr before staining and imaging. […] The cells were imaged and analyzed on ArrayScan VTI HCS reader (Thermal Scientific, PA, USA). Fluorescence intensity in the cytoplasmic and nuclear area was plotted for indication of cytoplasm to nucleus translocation. […]

HLE cells = assay: ROS determination in HLE cells (dihydroethidium); assay type: cell-based, human; settings: millimolar range, 24 hr
Method: FIG. 27. High dose DBZIM induced ROS production in HLE cells. HLE cells were grown in 96-Well plate and treated by DBZIM for 24 hr. The cells were then fixed and stained by DHE for quantification of ROS generation. The images ware acquired and analyzed using ArrayScan VTI HCS reader (Thermal Scientific, PA, USA) and Target Activation BioApplication software.
Oxidative stress was measured using Cellomic HitKit (Thermo Scientific, IL, USA). HLE cells were treated with DBZIM for 24 hr, fixed and labeled by Dihydroethidium probe for quantitation of ROS generation and Hoechst dye for nuclear staining. The result was analyzed by Target Activation BioApplication software. The percentage of positive responding cells was plotted as the indication of ROS amount.

[3] = culture medium for human esophageal cancer cells (Hou et al. 2005); cited from earlier work

Compound	IC50 (AGS) [µM]	caspase 3 activity [1]	caspase 8 activity [1]	caspase 9 activity [1]	liver fibrosis (Sirius Red collagen) [2]	AIF translocation (AIF)	ROS generation (HLE cells)	half life in culture medium [3] [min]
[Br-].c1ccc(Cn2cc[n+](Cc3ccccc3)c2)cc1 [DBZIM, 1,3-bisbenzylimidazolium bromide]	40	dose-dependently enhanced	not affected	dose-dependently enhanced	attenuated fibrosis	induce the translocation of AIF to the nucleus	generated significant amount of ROS	–
(−)-Epigallocatechin gallate [EGCG, reference compound]	–	–	–	–	–	–	–	30
